Reference: patent publication US5453524A, “Phosphorus-containing isoprenoid derivatives” (Eisai Co., Ltd., priority 1991, dated 1995)
Structures can show the parent of a compound that is named as a salt.

Biological target: T1, squalene synthetase (Rattus norvegicus, UniProt Q02769)
T1 construct: from tissue; host or cells: liver microsomes of cholestyramine-fed Sprague-Dawley rat
T1 sequence (Q02769 1-416): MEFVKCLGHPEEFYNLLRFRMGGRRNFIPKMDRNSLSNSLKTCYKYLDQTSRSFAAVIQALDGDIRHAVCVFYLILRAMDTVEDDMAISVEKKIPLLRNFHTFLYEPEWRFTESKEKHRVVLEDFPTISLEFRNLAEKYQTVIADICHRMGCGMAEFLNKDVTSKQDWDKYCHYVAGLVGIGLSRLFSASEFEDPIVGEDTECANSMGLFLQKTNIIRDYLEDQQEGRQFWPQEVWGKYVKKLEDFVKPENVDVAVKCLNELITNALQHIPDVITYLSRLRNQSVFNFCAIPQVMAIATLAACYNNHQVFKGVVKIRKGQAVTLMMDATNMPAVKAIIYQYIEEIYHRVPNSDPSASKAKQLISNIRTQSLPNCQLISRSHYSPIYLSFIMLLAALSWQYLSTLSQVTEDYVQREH
Assay: inhibitory activity against squalene synthetase with liver microsome of cholestyramine-treated rat
Assay type: biochemical
Details: liver microsome of cholestyramine-treated Sprague-Dawley rat; 10 μM 3H-FPP, pH 7.4, 37° C., 10 min
Method: Determination of inhibitory activity against squalene synthetase with liver microsome of cholestyramine-treated rat
1 mM NADPH (nicotinamide adenine dinucleotide phosphate)
10 μM ^3 H-FPP (farnesylpyrophosphoric acid) (10 mCi/mmol, a product of New England Nuclea Co.)
0.1 mg/ml liver microsome of rat 37° C., 10 min.
These components were put in a spit tube as follows: […]
______________________________________
sample solution of 5-fold concentration
1 mg/ml liver microsome of rat
The obtained mixture was preincubated at 37° C. for 5 minutes. 50 μl of 100 μM ^3 H-FPP (10 mCi/mmol; NEN) was added to the resulting mixture to initiate a reaction. After 10 minutes, 1 ml of 4N NaOH was added to the mixture to stop the reaction, followed by the addition thereto of 1 ml of ethanol. The obtained mixture was incubated at 80° C. for 12 hours, cooled with ice and extracted with petroleum ether twice. The petroleum ether layers were separated from the aqueous layer and evaporated to dryness with nitrogen gas. The residue was dissolved in 25 μl of chloroform containing squalene, famesol and cholesterol as markers. The obtained solution was applied to TLC (Empore; 412001-1) and developed under the following conditions:
benzene/isopropyl ether (1: 1), 6 min.
The band of squalene was cut from the plate and examined for radioactivity with a liquid scintillation counter to determine the inhibitory ratio.
(2) Preparation of Liver Microsome of Rat
A Sprague-Dawley rat was fed with food containing 2% of cholestyramine (Dowex 1-X2) for at least 5 days to enhance the cholesterol-biosynthesizing activity of the rat. At midnight (0:00), the liver was extirpated from the rat and washed with a 1.154 (w/v) ice-cooled KCl solution to remove the blood from the liver. The resulting liver was cut into small pieces with scissors, homogenized with a Teflon homogenizer of the loose fitting type and subjected to centrifugation (700 g, 10 min). The obtained supernatant was further subjected to centrifugation (15,000 g, 20 min) and the obtained supernatant was furthermore subjected to centrifugation (105,000 g 60 min) to be separated into a microsome fraction and a supernatant. This microsome fraction was washed with a 0.1M potassium phosphate buffer (pH: 7.4) once and suspended in a 0.1M potassium phosphate buffer in the liver concentration of 3 g/ml. The obtained suspension was examined for protein concentration by the Lowry method and the protein concentration was adjusted to 20 mg/ml.
IC50 values of the squalene synthetase inhibiting activity are given in Tables 1 to 5, wherein Me represents a methyl group and Et an ethyl group.

Row | Compound | IC50 [nM]
1 | CC(C)=CCC/C(C)=C/CC/C(C)=C/CCC(C(=O)O)P(=O)(O)O (centres unmarked) [Example 33, Trisodium salt of-(E,E)-1-carboxy-5,9,13-trimethyl-4,8,12-tetradecatrienylphosphonic acid] | 180
2 | CC(C)=CCC/C(C)=C/CC(P(=O)(O)O)P(=O)(O)O [Example 15, (E)-4,8-Dimethyl3,7-nonadienyl-1,1-bis(phosphonic acid disodium salt)] | 300
3 | C/C(=C\CC(P(=O)(O)O)P(=O)(O)O)CC/C=C(\C)c1ccccc1 [Example 21, (E,E)-4-Methyl-8-phenyl-3,7-nonadienyl-1,1-bis(phosphonic acid disodium salt)] | 1
4 | CC(C)=CCC/C(C)=C/CCC(C)N(C)CCCC(C(=O)O)P(=O)(O)O (centres unmarked) [Example 51, Trisodium salt of 1-carboxy-4,{(E)-N-methyl-1,5,9-trimethyl-4,8-decadienylamino}butylphosphonic acid] | 14
5 | CC(C)=CCC/C(C)=C/CC/C(C)=C/CN(C)CCCCC(P(=O)(O)O)P(=O)(O)O [Example 49, 5-{(E,E)-N-Methyl-3,7,11-trimethyl-2,6,10-dodecatrienylamino}pentyl-1,1-bis(phosphonic acid disodium salt)] | 2
6 | CC(C)=CCC/C(C)=C/CCC(C)N(C)CCCCC(P(=O)(O)O)P(=O)(O)O (centres unmarked) [Example 46, 5-{(E}-N-Methyl-1,5,9-trimethyl-4,8-decadienylamino}-pentyl-1,1-bis(phosphonic acid disodium salt)] | 2
7 | CC(C)=CCC/C(C)=C/CC/C(C)=C/C=C/CC(C(=O)O)P(=O)(O)O (centres unmarked) [Example 34, Trisodium salt of (E,E,E)-1-carboxy-6,10,14-trimethyl-3,5,9,13-pentadecatetraenylphosphonic acid] | 600
8 | CC(C)=CCC/C(C)=C/CC/C(C)=C/CNC(P(=O)(O)O)P(=O)(O)O [Example 47, {(E,E)-3,7,11-Trimethyl-2,6,10-dodecatrienylamino}-methylbis(phosphonic acid sodium salt)] | 2
9 | CC(C)=CCC/C(C)=C/CCN(C)CCCC(P(=O)(O)O)P(=O)(O)O [Example 19, 4-{(E)-N-Methyl-4,8-dimethyl-3,7-nonadienylamino}-butyl-1,1-bis(phosphonic acid disodium salt)] | 1
10 | CC(C)=CCC/C(C)=C/CC/C(C)=C/CN(C)CCCC(C(=O)O)P(=O)(O)O (centres unmarked) [Example 35, Trisodium salt of 1-carboxy,4-{(E,E)-N-methyl-3,7,11-trimethyl-2,6,10-dodecatrienylamino}burylphosphonic acid] | 20
11 | CC(C)=CCC/C(C)=C/CCC(C)N(C)CCCC(P(=O)(O)O)P(=O)(O)O (centres unmarked) [Example 18, 4-{(E)-N-Methyl-1,5,9-trimethyl-4,8-decadienylamino}-butyl-1,1-bis(phosphonic acid disodium salt)] | 3
12 | CC(C)=CCC/C(C)=C/CC/C(C)=C/CN(C)CCCC(P(=O)(O)O)P(=O)(O)O [Example 17, 4-{(E,E)-N-Methyl-3,7,11-trimethyl-2,6,10-dodecatrienylamino}butyl-1,1-bis(phosphonic acid disodium salt)] | 2
13 | CC(C)=CCC/C(C)=C/CC/C(C)=C/CC(P(=O)(O)O)P(=O)(O)O [Example 13, (E,E)-4,8,12-Trimethyl-37,11-tridecatrienyl-1,1-bis(phosphonic acid disodium salt)] | 3
14 | CC(C)=CCC/C(C)=C/CC/C(C)=C/CN(C)C(P(=O)(O)O)P(=O)(O)O [Example 48, {(E,E)-N-Methyl-3,7,11-trimethyl-2,6,10-dodecatrienylamino}methylbis(phosphonic acid disodium salt)] | 1
15 | CC(C)=CCC/C(C)=C/CC/C(C)=C/CCC(P(=O)(O)O)P(=O)(O)O [Example 14, (E,E)-5,9,13-Trimethyl-4,8,12-tetradecatrienyl-1,1-bis(phosphonic acid disodium salt)] | 5
16 | CC(C)=CCC/C(C)=C/CN(C)CCCC(P(=O)(O)O)P(=O)(O)O [Example 43, 4-{(E)-N-Methyl-3,7-dimethyl-2,6-octadienylamino}butyl 1,1-bis(phosphonic acid disodium salt)] | 3
17 | CC(C)=CCC/C(C)=C/CC/C(C)=C/CC(C(=O)O)P(=O)(O)O (centres unmarked) [Example 32, Trisodium salt of (E,E)-carboxy-4,8,12-trimethyl-3,7,11-tridecatrienylphosphonic acid] | 1600
18 | C/C(=C\CC(P(=O)(O)O)P(=O)(O)O)CC/C=C/c1ccccc1 [Example 22, (E,E)-4-Methyl-8-phenyl-3,7-octadienyl-1,1-bis(phosphonic acid disodium salt)] | 1
19 | CC(C)=CCC/C(C)=C/CC/C(C)=C/CC/C(C)=C/CC(P(=O)(O)O)P(=O)(O)O [Example 16, (E,E,E)-4,8,12,16-Tetramethyl-3,7,11,15-heptadecatetraenyl-1,1-bis(phosphonic acid disodium salt)] | 8
20 | C/C(=C\CC/C(C)=C/CC(P(=O)(O)O)P(=O)(O)O)CC/C=C/c1ccccc1 [Example 20, (E,E,E)-4,8-Dimethyl-12-phenyl-3,7,11-dodecatrienyl-1,1-bis(phosphonic acid disodium salt)] | 2
21 | CCOP(=O)(O)C(CC/C=C(\C)CC/C=C(\C)CCC=C(C)C)C(=O)O (centres unmarked) [Example 29, Disodium salt of ethyl(E,E)-1-carboxy-5,9,13-trimethyl-4,8,12-tetradecatrienylphosphonate] | 7300
22 | CC(C)=CCC/C(C)=C/CNCCCC(P(=O)(O)O)P(=O)(O)O [Example 45, 4-{(E)-3,7-Dimethyl-2,6-octadienylamino}butyl-1,1-bis(phosphonic acid disodium salt)] | 3
23 | CCN(C/C=C(\C)CCC=C(C)C)CCCC(P(=O)(O)O)P(=O)(O)O [Example 44, 4-{(E)-N-Ethyl-3,7-dimethyl-2,6-octadienylamino}butyl-1,1-bis(phosphoric acid disodium salt)] | 3
24 | CCOC(=O)C(C/C=C(\C)CC/C=C(\C)CCC=C(C)C)P(=O)(O)O (centres unmarked) [Example 31, Disodium (E,E)-1-carboethoxy4,8,12-trimethyl-3,7,11-tridecatrienylphosphonate] | 9400
25 | C/C(=C\CN(C)CCCC(P(=O)(O)O)P(=O)(O)O)CC/C=C(\C)c1ccccc1 [Example 23, 4-{(E,E)-N-Methyl-3-methyl-7-phenyl-2,6-octadienylamino}-butyl-1,1-bis(phosphonic acid disodium salt)] | 0.5
26 | CCOP(=O)(O)C(C/C=C/C=C(\C)CC/C=C(\C)CCC=C(C)C)C(=O)O (centres unmarked) [Example 30, Disodium salt of ethyl (E,E,E)-1-carboxy-6,10,14-trimethyl-3,5,9,13-pentadecatetraenylphosphonate] | 7100
